Test results from patent publication US11466044B2 (WAYNE STATE UNIVERSITY, priority 2017, dated 2022).
Converted amounts (≈) assume the structure as drawn.

What was measured:
MRSA = test: MIC by broth microdilution, MRSA isolates; assay type: cell-based; settings: for MIC AG038 MRSA: clinical isolate AG038; for MIC AG039 MRSA AAC(6′)-I ANT(4′)-I: clinical isolate AG039, AAC(6′)-I ANT(4′)-I; for MIC AG042 MRSA AAC(6′)-I ANT(4′)-I APH(2′): clinical isolate AG042, AAC(6′)-I ANT(4′)-I APH(2′); for MIC AG044 MRSA: clinical isolate AG044
E coli wild type = test: MIC by broth microdilution, wild type E coli; assay type: cell-based; settings: for MIC AG001 E. coli WT: clinical isolate AG001, WT; for MIC AG055 E. coli WT: clinical isolate AG055, WT
P aeruginosa = test: MIC by broth microdilution, P aeruginosa isolates; assay type: cell-based, Pseudomonas aeruginosa; settings: for MIC AG031 P. aer. APH(3′)-II: clinical isolate AG031, APH(3′)-II; for MIC AG032 P. aer. APH(3′)-II: clinical isolate AG032, APH(3′)-II
[1] = tested on: E coli carrying specific resistance determinants; test: MIC by broth microdilution, E coli carrying specific resistance determinants; assay type: cell-based; settings: for MIC AG003 E. coli AAC(3)-II: clinical isolate AG003, AAC(3)-II
[2] = tested on: wild type bacterial ribosomes; test: in-vitro translation assay, bacterial ribosomes; assay type: biochemical; settings: Mycobacterium smegmatis ribosomes; read-out: IC50 Bacterial
Text: (§1) The antiribosomal activity of these compounds was investigated with cell-free translation assays using both wild type bacterial ribosomes and hybrid ribosomes carrying eukaryotic decoding A sites enabling the prediction of selectivity.

[3] = tested on: A1555G mutant mitochondrial ribosome (human chimeric); test: in-vitro translation assay, human chimeric ribosomes, A1555G mutant mitochondrial decoding site; assay type: biochemical; settings: human mitochondrial decoding site with A1555G point mutation; read-out: IC50 Mitoch. A1555G
Text: as §1

[4] = tested on: cytosolic ribosome (human chimeric); assay type: biochemical; settings: ribosomes with a human cytosolic decoding site; read-out: IC50 Cytosolic
Text: as §1

[5] = tested on: mitochondrial ribosome (human chimeric); assay type: biochemical; settings: ribosomes with a human mitochondrial decoding site; read-out: IC50 Mitoch.
Text: as §1

[6] = tested on: rabbit reticulocyte ribosomes; test: in-vitro translation assay, rabbit reticulocyte ribosomes; assay type: biochemical; settings: mammalian cytosolic ribosomes (rabbit)

Row | SMILES | MIC AG038 MRSA (MRSA) | MIC AG039 MRSA AAC(6′)-I ANT(4′)-I (MRSA) | MIC AG042 MRSA AAC(6′)-I ANT(4′)-I APH(2′) (MRSA) | MIC AG044 MRSA (MRSA) | MIC AG001 E. coli WT (E coli wild type) | MIC AG055 E. coli WT (E coli wild type) | MIC AG031 P. aer. APH(3′)-II (P aeruginosa) | MIC AG032 P. aer. APH(3′)-II (P aeruginosa) | MIC AG003 E. coli AAC(3)-II [1] | IC50 [2] | IC50 [3] | IC50 [4] | IC50 [5] | IC50 [6] | MIC pH430 WT (E coli wild type; E. coli strain pH430, WT) | MIC AG036 ANT(4′,4′′) ([1]; E. coli strain AG036, ANT(4′,4′′)) | MIC AG037 APH(3′)-III ([1]; E. coli strain AG037, APH(3′)-III) | MIC pH421 APH(3)-I ([1]; E. coli strain pH421, APH(3)-I) | MIC pH422 APH(3′)-II ([1]; E. coli strain pH422, APH(3′)-II) | MIC pH423 APH(3′)-VI ([1]; E. coli strain pH423, APH(3′)-VI)
1 | CCNC1C(OC2C(N)CC(N)C(O)C2OC2OC(CO)C(OC3OC(CN)C(O)C(O)C3N)C2O)OC(CN)C(O)C1O (centres unmarked) [DC-172] | 0.5 µg/mL (≈ 0.778 µM) | >32 µg/mL | >32 µg/mL | 1 µg/mL (≈ 1.56 µM) | 1 to 2 µg/mL | 1 µg/mL (≈ 1.56 µM) | >64 µg/mL | >64 µg/mL | 1 µg/mL (≈ 1.56 µM) | 0.01 µM | 1.6 µM | 43 µM | 11 µM | 45 µM |  |  |  |  |  | 
2 | NCC1OC(OC2C(CO)OC(OC3C(O)C(N)CC(N)C3OC3OC4C(O)CCCOC4C(O)C3N)C2O)C(N)C(O)C1O (centres unmarked) [DC196] | 2 µg/mL (≈ 3.05 µM) |  |  |  | 4 µg/mL (≈ 6.1 µM) |  | >32 µg/mL |  |  | 0.14 µM | 96 µM | 88 µM | 200 µM | 43 µM | 4 μg/ml | 2 µg/mL (≈ 3.05 µM) | >128 µg/mL | >128 μg/ml | 64 μg/ml | 16 μg/ml
3 | NC[C@H]1O[C@H](O[C@H]2[C@H](O[C@@H]3O[C@H](CN)[C@@H](O)[C@H]3O)[C@@H](O)[C@H](N)C[C@@H]2N)[C@H](N)[C@@H](O)[C@@H]1O [DC048] | 8 µg/mL (≈ 17.6 µM) | >64 µg/mL | >128 µg/mL | 8 to 16 µg/mL | 32 to 64 µg/mL | 32 µg/mL (≈ 70.6 µM) |  |  | 16 µg/mL (≈ 35.3 µM) | 0.09 µM | 34 µM |  | 76 µM | 50 µM |  |  |  |  |  | 
4 | NCC1OC(OC2C(CNC=O)OC(OC3C(O)C(N)CC(N)C3OC3OC(CO)C(O)CC3N)C2O)C(N)C(O)C1O (centres unmarked) [DC153] | 4 µg/mL (≈ 6.38 µM) | >128 µg/mL | >128 µg/mL | 4 µg/mL (≈ 6.38 µM) | 4 µg/mL (≈ 6.38 µM) | 2 to 4 µg/mL | 32 to 64 µg/mL | 32 µg/mL (≈ 51.1 µM) | 4 µg/mL (≈ 6.38 µM) | 0.12 µM | 39 µM | 132 µM | 144 µM | 57 µM |  |  |  |  |  | 
